What was measured:
SHP/Rgg1358 system = assay: Maximum luciferase activity of strain TIL1566 with different synthetic SHPs; assay type: cell-based, S. thermophilus; conditions: strain TIL1566 in CDM, 37° C., synthetic peptide 1 μM; mean of three independent experiments
Experimental: For the assessment of the maximum luciferase activity reached with the addition of different SHPs in the culture media of strain TIL1566 (blp::rgg1358-Pster1357-luxAB-aphA3 ΔpptAB::erm), cells were grown overday at 37° C. in CDM. These cultures were diluted to a final OD600 of 0.05 in 1 ml of CDM. Synthetic SHP peptides were added in the culture medium at a final concentration of 1 μM. 250 μl of these diluted cultures were transferred to the wells of a covered sterile white microplate with a transparent bottom. The cultures' OD600 and luminescence values were monitored at 37° C. every 10 minutes in an Infinite M200 spectroluminometer, as previously described (Fontaine et al., J. Bacteriol. 192:1444-1454, 2010). The maximum of luminescence was recovered from each kinetic. The maximum activity was reported in Relative Luminescent Units divided by the OD600 (RLU/OD600) and measured as the mean of three independent experiments.
In order to assess their efficiency, we used their synthetic mature form to record the maximum luciferase activity of strain TIL1566 (blp::rgg1358-Pster1357-luxAB ΔpptAB::erm) in CDM and compared it to the one obtained with SHP1358. We chose the mature SHPs of strain CNRZ1066 similar to the mature SHP1358 (EGIIVIVVG, SEQ ID NO: 24): the SHP associated to Rgg STR_RS07375 (EGIIVILVG, SEQ ID NO: 25), the SHP associated to Rgg STR_RS09145 (EGIIVIGVG, SEQ ID NO: 26) and the SHP associated to Rgg STR_RS04530 (ESIIVIAVG, SEQ ID NO: 27). The most efficient peptide was ESIIVIAVG (SEQ ID NO: 27) with a maximum relative luciferase activity that reached 95% of the one obtained with SHP1358. The two other peptides were less efficient with percentage of 86% with EGIIVILVG (SEQ ID NO: 25) and only 27% with EGIIVIGVG (SEQ ID NO: 26).

elafin = assay: Western blot detection of secreted elafin in culture supernatants; assay type: cell-based, human
Source text: FIG. 3. Production of elafin detected by Western blot in the supernatant of different S. thermophilus strains. (A) At OD600 0.2 and 0.5 for strain TIL1536 (ΔhtrA::aphA3 ΔsepM::spec), TIL1551 (blp::shp-rgg1358-Pster1357-elafin-P32 cm ΔhtrA::aphA3 ΔywdF::spec) and TIL1552 (blp::rgg1358-Pster1357-elafin-P32 cm ΔhtrA::aphA3 ΔywdF::spec). (B) At OD600 1 and 2 for strain TIL1536, TIL1551 and TIL1552. (C) At OD600 0.2, 0.5 and 1 for strain TIL1567 (blp::rgg1358-Pster1357-luxAB-aphA3 ΔhtrA::aphA3 ΔywdF::spec ΔpptAB::erm). Purified elafin was used as a positive control and strain TIL1536 as negative control (elafin non-producing strain). Induction of the production of elafin with the addition of synthetic SHP in the culture medium is mentioned with: +SHP.
For the preparation of the samples, derivatives of strain CNRZ1066 were grown in CDM at 42° C. When necessary, induction was performed with the addition of SHP peptide (EGIIVIVVG, SEQ ID NO: 24) at a final concentration of 1 μM for strain TIL1552 and 0.5 µM for strain TIL1567 in the growth medium at OD600 of 0.2. When the cultures reached the desired OD600, 10 ml were centrifuged at 3200 g for 10 min at room temperature. […]
For the Western blot experiments, 10 μl of the samples were diluted in Laemmli Buffer (4×) and heated to 95° C. for 5 minutes. […] Detection was finally recorded using a Chemidoc (Biorad).

## EGIIVIGVG (listed as Streptococcus thermophilus)
SHP/Rgg1358 system
  maximum relative luciferase activity, percentage of the one obtained with SHP1358: 27%

## EGIIVIVVG (listed as Streptococcus thermophilus) [SHP1358, mature small hydrophobic peptide of S. thermophilus LMD-9, inducer of Rgg1358]
elafin; strain 1552, SHP 1 μM added at OD600 0.2, sampled at OD600 0.5
  elafin level in induced culture versus uninduced culture: much greater
elafin; strain TIL1567 (ΔpptAB), SHP 0.5 μM added at OD600 0.2, detected at OD600 0.5 and 1
  production of elafin in the extracellular medium on addition of SHP: restored

## EGIIVILVG (listed as Streptococcus thermophilus)
SHP/Rgg1358 system
  maximum relative luciferase activity, percentage of the one obtained with SHP1358: 86%

## ESIIVIAVG (listed as Streptococcus thermophilus)
SHP/Rgg1358 system
  maximum relative luciferase activity, percentage of the one obtained with SHP1358: 95%

Reference: patent US20240392305A1, “GENETICALLY MODIFIED BACTERIA AND USES THEREOF FOR THE INDUCIBLE EXPRESSION OF A NUCLEIC SEQUENCE OF INTEREST” (Institut National de Recherche Pour l'Agriculture, …, priority 2021, published 2024)
